Values after ≈ are worked out from the molar mass of the structure shown.

The subject of data set [1] is Kluyveromyces marxianus. Kind of data set: Antifungal activity against Candida kefyr assessed as growth inhibition at 250 ug/mL after 24 hrs by hole plate diffusion method. To be noted: read-out: IZ. The class given is functional.
The test system of data set [2] is Candida parapsilosis. Kind of data set: Antifungal activity against Candida parapsilosis assessed as growth inhibition at 250 ug/mL after 24 hrs by hole plate diffusion method. In kind it is functional. Particulars: Lodderomyces parapsilosis, read-out: IZ.
Data set [3] has as its system Candida albicans. Kind of data set: Antifungal activity against Candida albicans assessed as growth inhibition after 24 hrs by microbroth dilution method. The class given is functional. A general note: In broth dilution the organism is exposed to a series of concentrations in liquid medium.
For data set [4], the system named is Pichia kudriavzevii. Kind of data set: Antifungal activity against Candida krusei assessed as growth inhibition at 250 ug/mL after 24 hrs by hole plate diffusion method. In kind it is functional. To be noted: read-out: IZ.
Data set [5] relates to Candida dubliniensis. Kind of data set: Antifungal activity against Candida dubliniensis assessed as growth inhibition at 250 ug/mL after 24 hrs by hole plate diffusion method. The class given is functional. To be noted: read-out: IZ.
The nature of data set [6]: Cytotoxicity against mouse NIH/3T3 cells assessed as dead cells at 12.5 ug/mL after 72 hrs by Alamar Blue assay relative to control. In kind it is cell-based. Particulars: nih3t3, 72 h. In general terms: Resazurin is reduced to fluorescent resorufin, in cell work by metabolically active cells.
Data set [7] deals with Candida albicans. Kind of data set: Antifungal activity against Candida albicans assessed as growth inhibition at 250 ug/mL after 24 hrs by hole plate diffusion method. In kind it is functional. To be noted: read-out: IZ.
The test system of data set [8] is Pichia kudriavzevii. Kind of data set: Antifungal activity against Candida krusei assessed as growth inhibition after 24 hrs by microbroth dilution method. The class given is functional.
For data set [9], the system named is Candida albicans. Kind of data set: Antifungal activity against Candida albicans ATCC 90028 assessed as growth inhibition after 24 hrs by microbroth dilution method. In kind it is functional. To be noted: ATCC 90028, 24 h.
Data set [10] concerns Kluyveromyces marxianus. Kind of data set: Antifungal activity against Candida kefyr assessed as growth inhibition after 24 hrs by microbroth dilution method. In kind it is functional.
The test system of data set [11] is Candida tropicalis. Kind of data set: Antifungal activity against Candida tropicalis assessed as growth inhibition at 250 ug/mL after 24 hrs by hole plate diffusion method. The class given is functional. Particulars: read-out: IZ.
In data set [12] the test system is Candida dubliniensis. Kind of data set: Antifungal activity against Candida dubliniensis assessed as growth inhibition after 24 hrs by microbroth dilution method. In kind it is functional.
A short description of data set [13]: Hemolytic activity in Swiss mouse erythrocytes at 50 ug/mL after 1 hr by spectrophotometric analysis relative to control. In kind it is ADME, cell-based, Erythrocyte. To be noted: read-out: Activity.
Data set [14] has as its system Candida tropicalis. Kind of data set: Antifungal activity against Candida tropicalis assessed as growth inhibition after 24 hrs by microbroth dilution method. The class given is functional.
The subject of data set [15] is Candida parapsilosis. Kind of data set: Antifungal activity against Candida parapsilosis assessed as growth inhibition after 24 hrs by microbroth dilution method. To be noted: Lodderomyces parapsilosis. In kind it is functional.

Broadly, the MIC is the smallest concentration in the dilution series that meets the test's criterion for growth inhibition. For orientation: mortality means the percentage killed. Turning to `O=C1C2=C(OC(c3ccc(Cl)cc3)C2)C(=O)c2ccccc21` (stereo not given), the zone of inhibition at 250 µg/mL in data set [1] amounted to 5.27 mm; in data set [2] it was 0 mm; in data set [4], 6.14 mm; in data set [5], 0 mm; in [7], 1.5 mm; in [11], 2.49 mm. Besides, the MIC in [3] came out at 10.1 µM (≈ 3.12 µg/mL); in [8], 80.5 µM (≈ 25 µg/mL); in data set [9], 80.5 µM (≈ 25 µg/mL); in [10], 80.5 µM (≈ 25 µg/mL); in [12] it was 40.2 µM (≈ 12.5 µg/mL); in [14] it was 40.2 µM (≈ 12.5 µg/mL). The MIC in data set [15] was determined as 40.2 µM (≈ 12.5 µg/mL). The mortality in data set [6] stood at 0%. The hemolysis at 1 h, 50 ug/mL in data set [13] was 1.16%.

Take `O=C1C(=O)c2ccccc2C2=C1CC1(C=CC=C1)O2`: the zone of inhibition at 250 µg/mL in data set [1] amounted to 10.7 mm; in [2], 6.14 mm; in data set [4], 8.8 mm; in [5], 18.5 mm; in data set [7], 5.85 mm; in data set [11] it was 7.19 mm. Moreover, the minimal inhibitory concentration (MIC) in data set [3] was found to be 6.55 µM (≈ 1.64 µg/mL); in [8], 13.1 µM (≈ 3.28 µg/mL); in data set [9] it was 13.1 µM (≈ 3.28 µg/mL); in data set [10], 26.2 µM (≈ 6.56 µg/mL); in data set [12] it was 6.55 µM (≈ 1.64 µg/mL); in data set [14] it was 3.27 µM (≈ 0.818 µg/mL). Moreover, in data set [15], the MIC is 13.1 µM (≈ 3.28 µg/mL). Also, the mortality in [6] was found to be 8%. Also, the hemolysis at 1 h, 50 ug/mL in [13] is -1.63%.

With `O=C1C(=O)c2ccccc2C2=C1CC(c1ccc(Br)cc1)O2` (stereo not given), the zone of inhibition at 250 µg/mL in data set [1] came out at 8.68 mm; in data set [2], 7.75 mm; in data set [4], 11.3 mm; in data set [5] it was 9.23 mm; in [7], 6.17 mm; in data set [11], 0 mm. For the same compound, the MIC in data set [3] turned out to be 35.2 µM (≈ 12.5 µg/mL); in [8] it was 4.39 µM (≈ 1.56 µg/mL); in [9] it was 70.4 µM (≈ 25 µg/mL); in data set [10] it was 4.39 µM (≈ 1.56 µg/mL); in data set [12], 2.19 µM (≈ 0.778 µg/mL); in data set [14] it was 8.79 µM (≈ 3.12 µg/mL). In [15], the minimal inhibitory concentration (MIC) turned out to be 8.79 µM (≈ 3.12 µg/mL). Besides, in [6], the mortality was 0%. Further, the hemolysis at 1 h, 50 ug/mL in data set [13] turned out to be 4.59%.

With `O=C1C(=O)c2ccccc2C2=C1CC(c1ccc(F)cc1)O2` (stereo not given), the zone of inhibition at 250 µg/mL in data set [1] amounted to 8.96 mm; in data set [2], 8.12 mm; in data set [4] it was 9.8 mm; in data set [5], 1.7 mm; in data set [7] it was 1.37 mm; in data set [11], 8.59 mm. For the same compound, the minimal inhibitory concentration (MIC) in data set [3] was found to be 42.5 µM (≈ 12.5 µg/mL); in data set [8], 10.6 µM (≈ 3.12 µg/mL); in [9], 85 µM (≈ 25 µg/mL); in [10], 42.5 µM (≈ 12.5 µg/mL); in data set [12] it was 42.5 µM (≈ 12.5 µg/mL); in data set [14] it was 42.5 µM (≈ 12.5 µg/mL). In [15], the MIC was found to be 42.5 µM (≈ 12.5 µg/mL). Further, the mortality in data set [6] is recorded as 0%. In [13], the hemolysis at 1 h, 50 ug/mL is -0.202%.

Regarding `CC1(C)CC2=C(O1)c1ccccc1C(=O)C2=O` [NOR-BETA-LAPACHONE], the zone of inhibition at 250 µg/mL in [1] worked out at 8.27 mm; in data set [2], 7.41 mm; in [4], 9.01 mm; in data set [5], 0.1 mm; in [7], 1.64 mm; in data set [11] it was 4.78 mm. For the same compound, the MIC in [3] is 54.8 µM (≈ 12.5 µg/mL); in data set [8], 110 µM (≈ 25 µg/mL); in data set [9] it was 110 µM (≈ 25 µg/mL); in [10], 110 µM (≈ 25 µg/mL); in data set [12], 6.84 µM (≈ 1.56 µg/mL); in data set [14], 54.8 µM (≈ 12.5 µg/mL). The MIC in data set [15] came out at 27.4 µM (≈ 6.25 µg/mL). In addition, the mortality in data set [6] is given as 11%. The hemolysis at 1 h, 50 ug/mL in data set [13] is -2.4%.

Regarding `Cc1ccc(C2CC3=C(O2)c2ccccc2C(=O)C3=O)cc1` (stereo not given), the zone of inhibition at 250 µg/mL in [1] worked out at 0 mm; in data set [2], 0 mm; in data set [4], 5.77 mm; in [5], 6.44 mm; in data set [7], 0.39 mm; in data set [11] it was 2.26 mm. In addition, the MIC in data set [3] amounted to 10.8 µM (≈ 3.13 µg/mL); in data set [8], 5.39 µM (≈ 1.56 µg/mL); in data set [9] it was 10.8 µM (≈ 3.13 µg/mL); in data set [10], 5.39 µM (≈ 1.56 µg/mL); in data set [12], 2.69 µM (≈ 0.781 µg/mL); in data set [14], 43.1 µM (≈ 12.5 µg/mL). The MIC in data set [15] amounted to 10.8 µM (≈ 3.13 µg/mL). For the same compound, the mortality in data set [6] was found to be 0%. The hemolysis at 1 h, 50 ug/mL in data set [13] came out at 5.28%.

In the case of `Cc1ccc(C2CC3=C(O2)C(=O)c2ccccc2C3=O)c(C)c1` (stereo not given), the zone of inhibition at 250 µg/mL came out at 0 mm in [1]; 0 mm in data set [2]; 9.87 mm in [4]; 2.02 mm in data set [5]; 1.38 mm in [7]; 6.42 mm in data set [11]. The MIC was determined as 41.1 µM (≈ 12.5 µg/mL) in [3]; 82.1 µM (≈ 25 µg/mL) in data set [8]; 82.1 µM (≈ 25 µg/mL) in data set [9]; 82.1 µM (≈ 25 µg/mL) in data set [10]; 41.1 µM (≈ 12.5 µg/mL) in data set [12]; 41.1 µM (≈ 12.5 µg/mL) in data set [14]. Further, in data set [15], the minimum inhibitory concentration (MIC) amounted to 82.1 µM (≈ 25 µg/mL). In addition, in [6], the mortality turned out to be 0%. The hemolysis at 1 h, 50 ug/mL in [13] was -0.217%.

`O=C1C2=C(OC(c3ccccc3)C2)C(=O)c2ccccc21` (stereo not given): the zone of inhibition at 250 µg/mL in data set [1] was 1.96 mm; in [2] it was 6.88 mm; in [4], 8.29 mm; in [5], 4.3 mm; in data set [7], 17 mm; in [11] it was 7.7 mm. In addition, the MIC stood at 11.3 µM (≈ 3.12 µg/mL) in data set [3]; 90.5 µM (≈ 25 µg/mL) in [8]; 90.5 µM (≈ 25 µg/mL) in [9]; 90.5 µM (≈ 25 µg/mL) in data set [10]; 14.9 µM (≈ 4.12 µg/mL) in [12]; 45.2 µM (≈ 12.5 µg/mL) in data set [14]. In data set [15], the MIC turned out to be 90.5 µM (≈ 25 µg/mL). Also, the mortality in data set [6] is reported as 0%. Also, in data set [13], the hemolysis at 1 h, 50 ug/mL was -1.44%.

Values taken from ChEMBL document CHEMBL3217477, “Synthesis and biological evaluation of substituted - and -2,3-dihydrofuran naphthoquinones as potent anticandidal agents” (Medchemcomm, 2010).
